From paper PMC11945486, “TAS1R2/TAS1R3 Single-Nucleotide Polymorphisms Affect Sweet Taste Receptor Activation by Sweeteners: The SWEET Project” (Nutrients, 2025)
Where two headings read alike, the source gives them in different places. No end group written: not given here.

T1: human TAS1R2-WT/TAS1R3-M110T (Homo sapiens, UniProt Q7RTX0+Q8TE23, M110T)
T1 construct: expressed in transfected cells; host or cells: HEK293T stably expressing Gα16gust44
T1 sequence (Q8TE23 20-839): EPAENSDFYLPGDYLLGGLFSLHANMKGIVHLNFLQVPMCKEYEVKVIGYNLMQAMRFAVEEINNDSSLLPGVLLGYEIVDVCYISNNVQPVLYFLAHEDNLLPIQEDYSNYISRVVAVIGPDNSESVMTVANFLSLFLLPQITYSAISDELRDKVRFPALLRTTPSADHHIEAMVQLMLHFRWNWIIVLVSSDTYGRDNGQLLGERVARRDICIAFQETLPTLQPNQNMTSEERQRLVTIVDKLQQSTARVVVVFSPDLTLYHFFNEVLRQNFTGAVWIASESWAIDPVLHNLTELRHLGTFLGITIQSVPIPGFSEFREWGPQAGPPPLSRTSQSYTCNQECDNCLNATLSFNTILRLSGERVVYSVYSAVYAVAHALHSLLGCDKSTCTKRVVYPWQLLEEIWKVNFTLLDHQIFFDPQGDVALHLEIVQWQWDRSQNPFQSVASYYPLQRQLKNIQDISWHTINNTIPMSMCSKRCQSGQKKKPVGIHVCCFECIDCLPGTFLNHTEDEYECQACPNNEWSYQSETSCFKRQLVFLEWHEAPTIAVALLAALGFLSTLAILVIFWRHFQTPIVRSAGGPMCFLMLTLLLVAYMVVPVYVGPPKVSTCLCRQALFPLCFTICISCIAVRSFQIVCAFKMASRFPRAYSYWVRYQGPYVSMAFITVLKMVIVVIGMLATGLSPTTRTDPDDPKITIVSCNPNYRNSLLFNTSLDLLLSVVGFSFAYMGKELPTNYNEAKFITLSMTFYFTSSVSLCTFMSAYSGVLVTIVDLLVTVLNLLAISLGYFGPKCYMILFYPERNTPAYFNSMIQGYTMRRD
T1 sequence (Q7RTX0 21-852 M110T): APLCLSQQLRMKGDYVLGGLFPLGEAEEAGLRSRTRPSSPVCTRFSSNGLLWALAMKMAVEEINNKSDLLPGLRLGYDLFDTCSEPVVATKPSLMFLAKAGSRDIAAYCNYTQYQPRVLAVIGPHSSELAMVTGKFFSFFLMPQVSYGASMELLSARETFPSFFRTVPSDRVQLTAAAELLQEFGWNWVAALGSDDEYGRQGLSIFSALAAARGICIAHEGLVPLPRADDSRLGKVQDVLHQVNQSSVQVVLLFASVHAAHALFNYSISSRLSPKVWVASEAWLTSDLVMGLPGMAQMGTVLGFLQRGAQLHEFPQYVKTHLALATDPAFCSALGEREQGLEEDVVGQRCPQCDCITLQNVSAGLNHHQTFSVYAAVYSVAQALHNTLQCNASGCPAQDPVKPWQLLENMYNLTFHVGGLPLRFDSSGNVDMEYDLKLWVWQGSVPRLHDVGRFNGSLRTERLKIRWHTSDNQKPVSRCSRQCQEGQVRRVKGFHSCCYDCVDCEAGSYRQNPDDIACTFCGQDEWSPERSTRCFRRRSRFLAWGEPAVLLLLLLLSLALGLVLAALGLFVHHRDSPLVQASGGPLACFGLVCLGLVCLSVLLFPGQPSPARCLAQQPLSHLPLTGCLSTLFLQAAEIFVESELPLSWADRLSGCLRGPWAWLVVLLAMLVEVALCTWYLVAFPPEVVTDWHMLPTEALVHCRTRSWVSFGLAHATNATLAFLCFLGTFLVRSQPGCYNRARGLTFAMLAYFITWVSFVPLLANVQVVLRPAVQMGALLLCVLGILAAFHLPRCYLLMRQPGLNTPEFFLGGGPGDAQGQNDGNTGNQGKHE


Target: T1, human TAS1R2-WT/TAS1R3-M110T
Experiment: Calcium mobilisation assay, TAS1R2-WT with TAS1R3 variant M110T
Assay type: cell-based
Conditions: for Max ΔF/F0: maximal signal amplitude
Description: The coding sequences for TAS1R2 and TAS1R3 were commercially synthesised, and the human codon was optimised for expression in human cells. The coding sequences of human TAS1R2 and TAS1R3 were subcloned and inserted into the mammalian expression vectors pcDNA6/myc-HisA and pcDNA4/myc-HisA (Invitrogen; Thermo Fisher Scientific; Illkirch, France) between the EcoRI and NotI restriction sites, generating the plasmids pcDNA6-TAS1R2 and pcDNA4-TAS1R3, respectively. To increase protein expression in mammalian cells, an upstream start codon was used, which was a sequence called MAX, corresponding to the QBI SP163 element also described in pcDNA4-HisMax (Invitrogen; Thermo Fisher Scientific; Illkirch, France). To measure the expression level of the receptor by immunohistochemistry, we used the FLAG sequence ([…]) in the C-terminal position, which encodes the FLAG tag epitope. SNP variants of TAS1R2 and TAS1R3 were constructed based on […], respectively, using site-directed mutagenesis (Genewiz; Leipzig, Germany).
The HEK293T cells were kindly provided by Jay P. Slack (Givaudan Flavors Corporation; Cincinnati, OH, USA). HEK293T cells stably transfected with Gα16gust44 [43, 67] were seeded in poly-D-lysine-coated clear-bottom black 96-well plates (0.35 × 10^5 cells/well) in high-glucose DMEM supplemented with 2 mM GlutaMAX, 10% dialysed foetal bovine serum with penicillin/streptomycin and G418 (400 μg/mL) at 37 °C and 6.3% CO2 in a humidified atmosphere as previously reported. […] As a negative control, HEK293T cells were mock-transfected with the empty expression vector. After a further 24 h of incubation, the HEK293T cells were washed with C1 buffer (130 mM NaCl, 5 mM KCl, 10 mM HEPES pH 7.4 and 2 mM CaCl2). The 96-well plates containing the cells were then stimulated with sweet-tasting compounds. […] Different concentration ranges were tested depending on the sweet compound injected. The Ca^2+ changes were expressed as fractional changes in fluorescent light intensity: ΔF/F = (F − F0)/F0, where F was the fluorescent light intensity at each point, and F0 was the value of emitted fluorescent light prior to stimulus application. To calculate dose–response relationships, the changes in fluorescence upon stimulus application were averaged, mock-subtracted and baseline-corrected. The dose–response data obtained were adjusted using a 4-parameter logistic equation. The half-maximal effective concentrations (EC50 values) and maximal signal amplitudes were calculated using SigmaPlot software (version 15.0) (Systat Software; San Jose, CA, USA).
For in vitro calcium mobilisation assay performed on hTAS1R2-SNPs, hTAS1R3-SNPs and mTAS1R3-I60T, 6 to 7 concentrations were tested for each sweet compound, plus buffer alone. All concentration–receptor combinations were measured in duplicate, and each experiment was repeated at least 4 times (8 wells/concentration). Results were expressed for each concentration as ΔF/F mean ± SEM and represented as dose–response curves.

R1 = Variant EC50/WT EC50 | Max ΔF/F0 | EC50 (read-out: EC50) [µM] | EC50 (brazzein) [µg/mL] | Molecule
2.2 | 0.19 ± 0.01 | 2.7 ± 0.29 | – | COC(=O)[C@H](Cc1ccccc1)NC(=O)[C@H](CC(=O)O)NCCC(C)(C)C [Neotame]
3.0 | 1.31 ± 0.21 | 41.1 ± 19.4 | – | C=C(C)[C@@H]1CC=C(/C=N/O)CC1 [Perillartine, perillartine]
2.6 | 0.38 ± 0.04 | 103 ± 18 | – | C=C1C[C@@]23CC[C@H]4[C@@](C)(CCC[C@@]4(C)C(=O)O[C@@H]4O[C@H](CO)[C@@H](O)[C@H](O[C@@H]5O[C@H](CO)[C@@H](O)[C@H](O)[C@H]5O)[C@H]4O[C@@H]4O[C@H](CO)[C@@H](O)[C@H](O)[C@H]4O)[C@@H]2CC[C@]1(O[C@@H]1O[C@H](CO)[C@@H](O)[C@H](O[C@@H]2O[C@H](CO)[C@@H](O)[C@H](O)[C@H]2O)[C@H]1O[C@@H]1O[C@H](CO)[C@@H](O)[C@H](O)[C@H]1O)C3 [Rebaudioside M, rebaudioside M]
1.6 | 0.38 ± 0.01 | – | – | thaumatin
– | – | 16.3 ± 0.9 | – | thaumatin (protein, Eight disulfides, sweet-tasting plant protein, E957) ATFEIVNRCSYTVWAAASKGDAALDAGGRQLNSGESWTINVEPGTKGGKIWARTDCYFDDSGSGICKTGDCGGLLRCKRFGRPPTTLAEFSLNQYGKDYIDISNIKGFNVPMDFSPTTRGCRGVRCAADIVGQCPAKLKAPGGGCNDACTVFQTSEYCCTTGKCGPTEYSRFFKRLCPDAFSYVLDKPTTVTCPGSSNYRVTFCPTA

More lines, now with the values behind:

Molecule | R1 = Variant EC50/WT EC50 | Max ΔF/F0 | EC50 (read-out: EC50) [µM] | EC50 (brazzein) [µg/mL]
CC1=CC(=O)NS(=O)(=O)O1 [Acesulfame K, acesulfame K] | 1.7 | 0.20 ± 0.01 | 1060 ± 648 | –
O=S(=O)(O)NC1CCCCC1 [Cyclamate, cyclamate] | – | – | 2620 ± 98 | –
C[C@H](CC[C@@H](O[C@@H]1O[C@H](CO[C@@H]2O[C@H](CO)[C@@H](O)[C@H](O)[C@H]2O)[C@@H](O)[C@H](O)[C@H]1O[C@@H]1O[C@H](CO)[C@@H](O)[C@H](O)[C@H]1O)C(C)(C)O)[C@H]1CC[C@@]2(C)[C@@H]3CC=C4[C@@H](CC[C@H](O[C@@H]5O[C@H](CO[C@@H]6O[C@H](CO)[C@@H](O)[C@H](O)[C@H]6O)[C@@H](O)[C@H](O)[C@H]5O)C4(C)C)[C@]3(C)[C@H](O)C[C@]12C [Mogroside V, mogroside V] | 3.0 | 0.43 ± 0.02 | 94.5 ± 8.4 | –
COc1ccc(CCC(=O)c2c(O)cc(O[C@@H]3O[C@H](CO)[C@@H](O)[C@H](O)[C@H]3O[C@@H]3O[C@@H](C)[C@H](O)[C@@H](O)[C@H]3O)cc2O)cc1O [NHDC, neohesperidin dihydrochalcone] | 4.0 | 0.48 ± 0.02 | 203 ± 17.1 | –
OC[C@H]1O[C@H](O[C@]2(CCl)O[C@H](CCl)[C@@H](O)[C@@H]2O)[C@H](O)[C@@H](O)[C@H]1Cl [Sucralose] | 2.6 | 0.11 ± 0.02 | 282 ± 101 | –
brazzein (QDKCKKVYENYPVSKCQLANQCNYDCKLDKHARSGECFYDEKRNLQCICDYCEY; ends and bridges not checked; cysteine pairing not given here; UniProt P56552 1-54, looked up) [sweet-tasting protein obtained by recombinant production using the yeast Pichia pastoris] | 2.0 | 0.68 ± 0.01 | – | 221.5 ± 11.3
